Test results from patent US12643887B2, “Heterocyclic derivatives with cardiomyocyte proliferation activity for treatment of heart diseases” (Tongji University, priority 2019, dated 2026).
pIC50: −log10 of the molar value.

Key:
Assay type in all cases: biochemical
[1] = target: T1, human DYRK1A (Homo sapiens, UniProt Q13627); test: DYRK1A enzyme assay (ADP-Glo); settings: ADP-Glo, ATP 60 μM; read-out: DYRK1A IC50
T1 construct: Recombinant full-length DYRK1A (expressed in E. Coli cells with an N-terminal GST tag); GST (N); purchased SignalChem D09-10G; host or cells: E. coli
Experimental: The ability of compounds to inhibit human DYRK1A kinase activities was determined using a commercially available ADP-Glo™ Kinase Assay kit (Promega, Cat #V9102) according to the manufacturer's protocol.
Recombinant full-length DYRK1A (expressed in E. Coli cells with an N-terminal GST tag) was purchased from SignalChem (Cat #D09-10G). The DYRK substrate peptide (DYRKtide, sequence: […]) was purchased from SignalChem (Cat #D96-58). This assay, run in a 384-well plate format, is a generic method for measuring kinase activities using an ADP-Glo Kinase Assay Kit. The basic assay procedure involves two steps: (1) Enzymatic step: inhibitors are incubated with the kinase and then ATP (included in the ADP-Glo Kinase Assay Kit) and the DYRKtide are added to start the enzymatic reaction; (2) Detection step: after the kinase reaction, first ADP-Glo™ Reagent is added to terminate the kinase reaction and deplete the remaining ATP. Second, the Kinase Detection Reagent is added to simultaneously convert ADP to ATP and allow the newly synthesized ATP to be measured using a luciferase/luciferin reaction. The light generated is measured using a luminometer.
(§1) Briefly, DYRK1A (3 nM) in the enzymatic buffer solutions (40 mM Tris, pH 7.5, 20 mM MgCl2, 0.1 mg/ml BSA, 50 μM DTT) were mixed with various concentrations of inhibitors (dissolved in 100% DMSO). These solutions were incubated for 30 minutes at 25° C., and subsequently a mixture of substrate peptide and ATP was added with the final peptide and ATP concentrations at 20 μM and 60 μM, respectively. The final reaction mixture of enzyme-substrate-ATP-compound was incubated for 60 minutes at 25° C.
(§2) Afterwards ADP-Glo™ Reagent was added and the mixture was incubated at 25° C. for 60 minutes. Then Kinase Detection Reagent was added and the final mixture was incubated at 25° C. for 60 minutes. The luminescence signal of the final solution was measured on an Envision instrument (PerkinElmer). The percent (%) inhibition at each concentration of a compound is calculated relative to the luminescence signal in the Max and Min control wells contained within each assay plate. […] The concentrations and percent inhibition values for a test compound are plotted and the concentration of the compound required to achieve 50% inhibition (IC50) is determined with a four-parameter logistic dose response equation.

[2] = target: T2, human HIPK2 (Homo sapiens, UniProt Q9H2X6); test: HIPK2 enzyme assay (ADP-Glo); settings: ADP-Glo, ATP 5 μM; read-out: HIPK2 IC50
T2 construct: Recombinant human HIPK2 (1-640); GST (N); purchased SignalChem H04-11BG; host or cells: Sf9 insect cells
Experimental: The ability of compounds to inhibit human HIPK2 kinase activities was determined using a commercially available ADP-Glo™ Kinase Assay kit (Promega, Cat #V9102) according to the manufacturer's protocol.
Recombinant human HIPK2 (1-640) (expressed in Sf9 insect cells with an N-terminal GST tag) was purchased from SignalChem (Cat #H04-11BG). Recombinant full length human MBP (expressed in E. Coli cells with an N-terminal GST tag) was purchased from SignalChem (Cat #M42-54G). This assay, run in a 384-well plate format, is a generic method for measuring kinase activities using an ADP-Glo Kinase Assay Kit. The basic assay procedure involves two steps: (1) Enzymatic step: inhibitors are incubated with the kinase and then ATP (included in the ADP-Glo Kinase Assay Kit) and the MBP protein are added to start the enzymatic reaction; (2) Detection step: after the kinase reaction, first ADP-Glo™ Reagent is added to terminate the kinase reaction and deplete the remaining ATP. Second, the Kinase Detection Reagent is added to simultaneously convert ADP to ATP and allow the newly synthesized ATP to be measured using a luciferase/luciferin reaction. The light generated is measured using a luminometer.
as §1, with “Briefly, HIPK2 (1” for “Briefly, DYRK1A (3”, “at 0.05 mg/ml” for “at 20 μM”, “and 5” for “and 60”, “for 90” for “for 60”
Afterwards ADP-Glo™ Reagent was added and the mixture was incubated at 25° C. for 60 minutes. Then Kinase Detection Reagent was added, and the final mixture was incubated at 25° C. for 60 minutes. The luminescence signal of the final solution was measured on an Envision instrument (PerkinElmer). The percent (%) inhibition at each concentration of a compound is calculated relative to the luminescence signal in the Max and Min control wells contained within each assay plate. […] The concentrations and percent inhibition values for a test compound are plotted and the concentration of the compound required to achieve 50% inhibition (IC50) is determined with a four-parameter logistic dose response equation.

[3] = target: T3, human CLK1 (Homo sapiens, UniProt P49759); test: CLK1 enzyme assay (ADP-Glo); settings: ADP-Glo, ATP 10 μM; read-out: CLK1 IC50
T3 construct: Recombinant human CLK1 (129-end); GST (N); purchased SignalChem C57-11G; host or cells: Sf9 insect cells
Experimental: The ability of compounds to inhibit human CLK1 kinase activities was determined using a commercially available ADP-Glo™ Kinase Assay kit (Promega, Cat #V9102) according to the manufacturer's protocol.
Recombinant human CLK1 (129-end) (expressed in Sf9 insect cells with an N-terminal GST tag) was purchased from SignalChem (Cat #C57-11G). Recombinant full length human MBP (expressed in E. Coli cells with an N-terminal GST tag.) was purchased from SignalChem (Cat #M42-54G). This assay, run in a 384-well plate format, is a generic method for measuring kinase activities using an ADP-Glo Kinase Assay Kit. The basic assay procedure involves two steps: (1) Enzymatic step: inhibitors are incubated with the kinase and then ATP (included in the ADP-Glo Kinase Assay Kit) and the MBP protein are added to start the enzymatic reaction; (2) Detection step: after the kinase reaction, first ADP-Glo™ Reagent is added to terminate the kinase reaction and deplete the remaining ATP. Second, the Kinase Detection Reagent is added to simultaneously convert ADP to ATP and allow the newly synthesized ATP to be measured using a luciferase/luciferin reaction. The light generated is measured using a luminometer.
as §1, with “Briefly, CLK1 (16” for “Briefly, DYRK1A (3”, “at 2” for “at 20”, “and 10” for “and 60”
as §2

T2 sequence (Q9H2X6 1-640): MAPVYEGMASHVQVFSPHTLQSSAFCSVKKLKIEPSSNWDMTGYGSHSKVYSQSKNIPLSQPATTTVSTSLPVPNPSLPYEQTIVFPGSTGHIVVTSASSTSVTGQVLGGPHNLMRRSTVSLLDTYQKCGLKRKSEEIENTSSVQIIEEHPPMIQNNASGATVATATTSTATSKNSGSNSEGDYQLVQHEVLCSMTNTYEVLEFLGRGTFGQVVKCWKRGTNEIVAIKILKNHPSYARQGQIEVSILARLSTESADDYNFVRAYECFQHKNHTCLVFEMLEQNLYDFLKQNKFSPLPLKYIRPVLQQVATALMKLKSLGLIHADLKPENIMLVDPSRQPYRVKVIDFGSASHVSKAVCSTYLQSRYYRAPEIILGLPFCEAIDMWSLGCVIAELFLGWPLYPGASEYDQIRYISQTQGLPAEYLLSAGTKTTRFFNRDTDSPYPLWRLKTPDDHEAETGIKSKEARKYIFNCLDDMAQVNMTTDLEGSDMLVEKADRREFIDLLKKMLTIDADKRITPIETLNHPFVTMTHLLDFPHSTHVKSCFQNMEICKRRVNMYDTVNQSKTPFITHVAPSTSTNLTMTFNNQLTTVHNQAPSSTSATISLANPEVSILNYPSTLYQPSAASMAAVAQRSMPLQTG
T3 sequence (P49759 129-484 limits assumed): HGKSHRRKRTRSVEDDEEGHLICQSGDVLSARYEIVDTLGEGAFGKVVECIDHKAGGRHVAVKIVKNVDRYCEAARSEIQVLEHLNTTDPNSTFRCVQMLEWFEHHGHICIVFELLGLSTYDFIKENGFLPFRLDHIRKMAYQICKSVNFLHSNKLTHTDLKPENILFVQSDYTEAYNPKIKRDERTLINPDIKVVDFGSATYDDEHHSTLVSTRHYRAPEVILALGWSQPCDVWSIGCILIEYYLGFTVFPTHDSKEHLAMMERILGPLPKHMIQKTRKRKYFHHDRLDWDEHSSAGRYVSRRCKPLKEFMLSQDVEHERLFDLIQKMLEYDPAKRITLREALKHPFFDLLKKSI

| Structure (SMILES) | pIC50 [1] | pIC50 [2] | pIC50 [3] |
| --- | --- | --- | --- |
| CN(C1=N/C(=C\c2ccc3c(c2)OCO3)C(=O)N1)c1ccccc1 [Example 1, (Z)-5-(benzo[d][1,3]dioxol-5-ylmethylene)-2-(methyl(phenyl)amino)-3,5-dihydro-4H-imidazol-4-one] | 6.00 to 7.00 | < 5.00 | 6.00 to 7.00 |
| O=C1/C(=C/c2ccc3c(c2)OCO3)N=C(N(Cc2ccccc2)c2ccccc2)N1Cc1ccccc1 [Example 2, (Z)-5-(benzo[d][1,3]dioxol-5-ylmethylene)-3-benzyl-2-(benzyl(phenyl)amino)-3,5-dihydro-4H-imidazol-4-one] | 5.00 to 6.00 | < 5.00 | 5.00 to 6.00 |
| CN1C(=O)/C(=C/c2ccc3c(c2)OCO3)N=C1N(C)c1ccccc1 [Example 3, (Z)-5-(benzo[d][1,3]dioxol-5-ylmethylene)-3-methyl-2-(methyl(phenyl)amino)-3,5-dihydro-4H-imidazol-4-one] | 5.00 to 6.00 | < 5.00 | 5.00 to 6.00 |
| O=C1NC(Nc2ccccc2)=N/C1=C\c1ccc2ncsc2c1 [Example 6, (Z)-5-(benzo[d]thiazol-6-ylmethylene)-2-(phenylamino)-3,5-dihydro-4H-imidazol-4-one] | – | 6.00 to 7.00 | > 7.00 |
| CN(C1=N/C(=C\c2ccc3ncsc3c2)C(=O)N1)c1ccccc1 [Example 7, (Z)-5-(benzo[d]thiazol-6-ylmethylene)-2-(methyl(phenyl)amino)-3,5-dihydro-4H-imidazol-4-one] | 6.00 to 7.00 | 5.00 to 6.00 | 6.00 to 7.00 |
| CN(C1=N/C(=C\c2ccc3c(c2)OCCO3)C(=O)N1)c1ccccc1 [Example 8, (Z)-5-((2,3-dihydrobenzo[b][1,4]dioxin-6-yl)methylene)-2-(methyl(phenyl)amino)-3,5-dihydro-4H-imidazol-4-one] | 5.00 to 6.00 | < 5.00 | 5.00 to 6.00 |
| O=C1NC(Nc2ccccc2)=N/C1=C\c1ccc(=O)[nH]c1 [Example 9, (Z)-5-((5-oxo-2-(phenylamino)-1,5-dihydro-4H-imidazol-4-ylidene)methyl)pyridin-2(1H)-one] | 6.00 to 7.00 | < 5.00 | 6.00 to 7.00 |
| O=C1NC(N(CC2CC2)c2ccccc2)=N/C1=C\c1ccc2c(c1)OCO2 [Example 10, (Z)-5-(benzo[d][1,3]dioxol-5-ylmethylene)-2-((cyclopropylmethyl)(phenyl)amino)-3,5-dihydro-4H-imidazol-4-one] | 6.00 to 7.00 | < 5.00 | 6.00 to 7.00 |
| CN(CC1CC1)C1=N/C(=C\c2ccc3c(c2)OCO3)C(=O)N1 [Example 11, (Z)-5-(benzo[d][1,3]dioxol-5-ylmethylene)-2-((cyclopropylmethyl)(methyl)amino)-3,5-dihydro-4H-imidazol-4-one] | 6.00 to 7.00 | < 5.00 | 6.00 to 7.00 |
| COc1ccc(N(C)C2=N/C(=C\c3ccc4c(c3)OCO4)C(=O)N2)cc1 [Example 12, (Z)-5-(benzo[d][1,3]dioxol-5-ylmethylene)-2-((4-methoxyphenyl)(methyl)amino)-3,5-dihydro-4H-imidazol-4-one] | 6.00 to 7.00 | < 5.00 | 6.00 to 7.00 |
| O=C1NC(N(CCO)c2ccccc2)=N/C1=C\c1ccc2c(c1)OCO2 [Example 13, (Z)-5-(benzo[d][1,3]dioxol-5-ylmethylene)-2-((2-hydroxyethyl)(phenyl)amino)-3,5-dihydro-4H-imidazol-4-one] | 6.00 to 7.00 | 5.00 to 6.00 | 6.00 to 7.00 |
| COc1ccc(NC2=N/C(=C\c3ccc4ncsc4c3)C(=O)N2)cc1 [Example 25, (Z)-5-(benzo[d]thiazol-6-ylmethylene)-2-((4-methoxyphenyl)amino)-3,5-dihydro-4H-imidazol-4-one] | – | 6.00 to 7.00 | > 7.00 |
| O=C1NC(NCc2ccccc2)=N/C1=C\c1ccc2ncsc2c1 [Example 31, (Z)-5-(benzo[d]thiazol-6-ylmethylene)-2-(benzylamino)-3,5-dihydro-4H-imidazol-4-one] | – | 6.00 to 7.00 | – |
| O=C1NC(NCC2CC2)=N/C1=C\c1ccc2ncsc2c1 [Example 34, (Z)-5-(benzo[d]thiazol-6-ylmethylene)-2-((cyclopropylmethyl)amino)-3,5-dihydro-4H-imidazol-4-one] | – | 5.00 to 6.00 | – |
| O=C1NC(Nc2ccc(Cl)cc2)=N/C1=C\c1ccc2ncsc2c1 [Example 40, (Z)-5-(benzo[d]thiazol-6-ylmethylene)-2-((4-chlorophenyl)amino)-3,5-dihydro-4H-imidazol-4-one] | – | 5.00 to 6.00 | > 7.00 |
| O=C1NC(Nc2ccc3ncsc3c2)=N/C1=C\c1ccc2ncsc2c1 [Example 48, (Z)-2-(benzo[d]thiazol-6-ylamino)-5-(benzo[d]thiazol-6-ylmethylene)-3,5-dihydro-4H-imidazol-4-one] | – | > 7.00 | > 7.00 |
| O=C1NC(Nc2ccc3ncsc3c2)=N/C1=C\c1ccc2scnc2c1 [Example 57, (Z)-5-(benzo[d]thiazol-5-ylmethylene)-2-(benzo[d]thiazol-6-ylamino)-3,5-dihydro-4H-imidazol-4-one] | – | 6.00 to 7.00 | > 7.00 |
| O=C1NC(Nc2ccc3nccnc3c2)=N/C1=C\c1ccc2ncsc2c1 [Example 82, (Z)-5-(benzo[d]thiazol-6-ylmethylene)-2-(quinoxalin-6-ylamino)-3,5-dihydro-4H-imidazol-4-one] | – | 6.00 to 7.00 | > 7.00 |
